Assay results as given in ChEMBL document CHEMBL3399993, “Design and synthesis of novel quinoline-aminopiperidine hybrid analogues as Mycobacterium tuberculosis DNA gyraseB inhibitors” (Bioorg Med Chem, 2015).
Values after ≈ are worked out from the molar mass of the structure shown.

Each molecule was assayed on Mycobacterium tuberculosis (assay: Antimycobacterial activity against extensively drug resistant Mycobacterium tuberculosis).
Format: functional

Compound	MIC
Cc1cc(N2CCC(NC(=O)Nc3ccc(F)cc3)CC2)c2cc(F)ccc2n1	3.82 µM (≈ 1.51 µg/mL)
COc1ccc2nc(C)cc(N3CCC(NC(=S)Nc4ccccc4)CC3)c2c1	7.62 µM (≈ 3.1 µg/mL)
COc1ccc2nc(C)cc(N3CCC(NC(=S)Nc4ccc(Cl)cc4)CC3)c2c1	6.94 µM (≈ 3.06 µg/mL)
COc1ccc2nc(C)cc(N3CCC(NC(=S)Nc4ccc([N+](=O)[O-])cc4)CC3)c2c1	1.72 µM (≈ 0.777 µg/mL)
